Results published in ChEMBL document CHEMBL6078616, “Seven-membered N-heterocycles as approved drugs and promising leads in medicinal chemistry as well as the metal-free domino access to their scaffolds” (Eur J Med Chem, 2024).

What was measured:
[1] = molecular target: T1, Protein deacetylase HDAC6 (Homo sapiens, UniProt Q9UBN7); assay: Inhibition of HDAC6 (unknown origin)
T1 sequence (Q9UBN7 whole entry): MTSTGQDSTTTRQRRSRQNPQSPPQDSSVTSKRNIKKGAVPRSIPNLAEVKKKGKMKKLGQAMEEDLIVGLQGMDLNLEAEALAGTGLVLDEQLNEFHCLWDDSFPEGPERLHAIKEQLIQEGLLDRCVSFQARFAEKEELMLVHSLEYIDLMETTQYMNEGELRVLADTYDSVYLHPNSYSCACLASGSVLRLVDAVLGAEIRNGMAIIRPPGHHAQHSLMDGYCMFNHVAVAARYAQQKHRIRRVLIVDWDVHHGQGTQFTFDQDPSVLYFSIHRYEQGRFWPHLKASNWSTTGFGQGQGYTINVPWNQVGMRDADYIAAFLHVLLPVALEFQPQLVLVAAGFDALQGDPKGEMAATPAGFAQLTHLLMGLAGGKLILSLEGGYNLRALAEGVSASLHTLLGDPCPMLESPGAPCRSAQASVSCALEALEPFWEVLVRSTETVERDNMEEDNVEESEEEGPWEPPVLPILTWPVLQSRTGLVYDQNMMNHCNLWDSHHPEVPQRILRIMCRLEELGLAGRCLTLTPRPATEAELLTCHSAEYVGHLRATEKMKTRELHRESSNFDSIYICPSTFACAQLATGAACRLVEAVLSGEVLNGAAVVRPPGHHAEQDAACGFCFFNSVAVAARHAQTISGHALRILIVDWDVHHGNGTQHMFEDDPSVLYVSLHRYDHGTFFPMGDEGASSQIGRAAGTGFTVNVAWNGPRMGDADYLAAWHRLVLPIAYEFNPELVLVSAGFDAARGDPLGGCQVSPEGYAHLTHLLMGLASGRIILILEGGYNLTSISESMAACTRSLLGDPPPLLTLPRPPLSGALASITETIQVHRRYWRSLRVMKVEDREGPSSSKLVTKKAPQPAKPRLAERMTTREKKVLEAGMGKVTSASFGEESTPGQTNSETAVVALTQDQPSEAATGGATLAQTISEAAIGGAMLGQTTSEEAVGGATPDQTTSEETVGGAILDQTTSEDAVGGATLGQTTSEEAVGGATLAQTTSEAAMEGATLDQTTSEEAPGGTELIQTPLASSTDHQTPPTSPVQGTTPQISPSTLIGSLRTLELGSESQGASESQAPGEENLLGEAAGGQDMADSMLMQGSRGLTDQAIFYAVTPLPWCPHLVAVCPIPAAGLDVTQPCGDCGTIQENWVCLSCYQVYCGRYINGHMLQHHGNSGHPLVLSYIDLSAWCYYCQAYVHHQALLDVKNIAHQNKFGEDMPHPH

[2] = molecular target: T2, Histone deacetylase 8 (Homo sapiens, UniProt Q9BY41); assay: Inhibition of HDAC8 (unknown origin)
T2 sequence (Q9BY41 whole entry): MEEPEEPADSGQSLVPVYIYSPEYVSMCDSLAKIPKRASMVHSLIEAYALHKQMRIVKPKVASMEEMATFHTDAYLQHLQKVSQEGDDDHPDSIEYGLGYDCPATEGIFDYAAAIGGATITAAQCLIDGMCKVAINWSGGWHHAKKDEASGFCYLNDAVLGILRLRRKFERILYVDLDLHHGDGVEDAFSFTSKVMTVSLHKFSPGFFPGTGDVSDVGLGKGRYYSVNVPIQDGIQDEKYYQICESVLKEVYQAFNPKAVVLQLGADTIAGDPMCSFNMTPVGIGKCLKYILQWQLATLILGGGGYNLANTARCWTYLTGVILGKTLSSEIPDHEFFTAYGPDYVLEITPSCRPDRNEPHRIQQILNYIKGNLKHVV

[3] = molecular target: Histone deacetylase 9 (Homo sapiens, UniProt Q9UKV0); assay: Inhibition of HDAC9 (unknown origin)
Chain of Histone deacetylase 9 (Q9UKV0 whole entry): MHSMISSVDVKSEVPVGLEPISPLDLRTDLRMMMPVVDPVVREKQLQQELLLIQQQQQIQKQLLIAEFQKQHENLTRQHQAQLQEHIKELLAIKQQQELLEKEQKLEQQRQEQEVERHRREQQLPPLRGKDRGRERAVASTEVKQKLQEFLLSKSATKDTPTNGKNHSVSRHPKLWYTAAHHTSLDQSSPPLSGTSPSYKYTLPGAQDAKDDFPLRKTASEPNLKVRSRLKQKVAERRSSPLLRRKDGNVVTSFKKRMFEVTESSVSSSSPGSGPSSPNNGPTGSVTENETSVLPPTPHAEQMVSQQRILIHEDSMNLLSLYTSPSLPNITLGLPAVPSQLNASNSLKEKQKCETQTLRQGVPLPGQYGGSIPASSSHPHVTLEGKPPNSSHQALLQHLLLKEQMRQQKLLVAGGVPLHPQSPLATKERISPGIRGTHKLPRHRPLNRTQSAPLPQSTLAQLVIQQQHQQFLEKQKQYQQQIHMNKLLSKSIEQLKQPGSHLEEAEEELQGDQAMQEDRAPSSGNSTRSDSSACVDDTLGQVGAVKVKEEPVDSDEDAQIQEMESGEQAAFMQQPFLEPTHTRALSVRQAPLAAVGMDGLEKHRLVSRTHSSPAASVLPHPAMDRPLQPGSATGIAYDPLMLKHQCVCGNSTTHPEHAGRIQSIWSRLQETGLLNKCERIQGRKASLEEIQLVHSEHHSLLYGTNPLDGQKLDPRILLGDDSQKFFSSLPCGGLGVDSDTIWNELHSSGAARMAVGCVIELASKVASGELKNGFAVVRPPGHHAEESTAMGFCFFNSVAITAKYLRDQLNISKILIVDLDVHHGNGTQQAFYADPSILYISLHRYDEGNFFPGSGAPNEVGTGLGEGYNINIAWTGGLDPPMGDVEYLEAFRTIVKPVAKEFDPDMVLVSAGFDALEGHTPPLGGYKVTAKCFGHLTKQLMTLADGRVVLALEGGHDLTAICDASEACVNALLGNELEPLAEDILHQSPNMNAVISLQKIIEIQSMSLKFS

`O=C(NO)c1ccc(CN2c3ccccc3[S+]([O-])C[C@H]3CCCC[C@H]32)cc1` (stereo partly drawn) showed an IC50 [1] of 100 nM, an IC50 [2] of 2900 nM and an IC50 [3] of 8900 nM.
